From US8927571B2, “Pyrido[4,3-B]indoles and methods of use” (Medivation Technologies, Inc., priority 2009, dated 2015)

Key:
[1] = molecular target: human recombinant dopamine D2L receptor (Homo sapiens, UniProt P14416); experiment: Dopamine D2L radioligand binding assay ([3H]Spiperone); conditions: for inhibition at 1 µM: read-out: Percent Inhibition of ligand binding, Dopamine (1 μM) D2L
Procedure: Compounds of the invention were incubated with 0.16 nM [^3H]Spiperone for 120 min at 25° C. Non-specific binding was estimated in the presence of 10 μM Haloperidol. Receptor proteins were filtered and washed, the filters were then counted to determine [^3H]Spiperone specifically bound. Compounds were screened at 1 μM or lower, using 1% DMSO as vehicle. Biochemical assay results are presented as the percent inhibition of specific binding in Table 3.

[2] = molecular target: T1, human recombinant adrenergic α2A receptor (Homo sapiens, UniProt P08913); experiment: Adrenergic α2A radioligand binding assay ([3H]MK-912); conditions: 1 nM [3H]MK-912, read-out: Percent Inhibition of ligand binding, Adrenergic (1 μM) α2A
T1 construct: expressed in transfected cells; host or cells: insect Sf9 cells
T1 sequence (P08913 1-465): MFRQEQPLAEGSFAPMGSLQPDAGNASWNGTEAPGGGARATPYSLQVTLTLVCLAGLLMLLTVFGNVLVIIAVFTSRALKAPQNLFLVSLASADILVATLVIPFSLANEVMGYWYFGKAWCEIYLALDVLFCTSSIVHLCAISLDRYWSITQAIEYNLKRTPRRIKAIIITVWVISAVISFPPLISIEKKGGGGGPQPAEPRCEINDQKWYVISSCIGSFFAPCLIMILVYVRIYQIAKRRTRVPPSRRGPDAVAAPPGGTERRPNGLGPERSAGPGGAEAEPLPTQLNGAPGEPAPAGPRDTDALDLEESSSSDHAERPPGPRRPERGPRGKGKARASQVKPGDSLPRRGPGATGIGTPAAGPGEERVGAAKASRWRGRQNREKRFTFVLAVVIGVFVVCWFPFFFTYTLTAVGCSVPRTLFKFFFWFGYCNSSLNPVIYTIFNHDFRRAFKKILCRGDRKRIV
Procedure: To evaluate in radioligand binding assays the activity of compounds of the invention, human recombinant adrenergic α2A receptor expressed in insect Sf9 cells (Uhlen S et al. J. Pharmacol. Exp. Ther. 271:1558, 1994) in a modified Tris-HCl buffer (50 mM Tris-HCl, pH 7.4, 12.5 mM MgCl2, 2 mM EDTA) was used. Compounds of invention were incubated with 1 nM [^3H]MK-912 for 60 min at 25° C. MK912 is (2S-trans)-1,3,4,5′,6,6′,7,12b-octahydro-1′,3′-dimethyl-spiro[2H-benzofuro[2,3-a]quinolizine-2,4′(1′H)-pyrimidin]-2′(3′H)-one hydrochloride Non-specific binding was estimated in the presence of 10 μM WB-4101 (2-(2,6-dimethoxyphenoxyethyl) aminomethyl-1,4-benzodioxane hydrochloride). Receptor proteins were filtered and washed, the filters were then counted to determine [^3H]MK-912 specifically bound. Compounds were screened at 1 μM or lower, using 1% DMSO as vehicle. Biochemical assay results are presented as the percent inhibition of specific binding in Table 3.

[3] = molecular target: human recombinant serotonin (5-Hydroxytryptamine) 5-HT7 receptor (Homo sapiens, UniProt P34969); experiment: Serotonin 5-HT7 radioligand binding assay ([3H]LSD); conditions: 5.5 nM [3H]LSD, read-out: Percent Inhibition of ligand binding, Serotonin (1 μM) 5-HT7
Procedure: Compounds of invention were incubated with 5.5 nM [^3H] Lysergic acid diethylamide (LSD) for 2 h at 25° C. […] Receptor proteins were filtered and washed, the filters were then counted to determine [^3H]LSD specifically bound. Compounds were screened at 1 μM or lower, using 1% DMSO as vehicle. Biochemical assay results are presented as the percent inhibition of specific binding in Table 4.

[4] = molecular target: human recombinant histamine H1 receptor (Homo sapiens, UniProt P35367); experiment: Histamine H1 radioligand binding assay ([3H]Pyrilamine); conditions: percent inhibition of specific binding of […] [3H]Pyrilamine; compounds screened at 1 μM or lower
Procedure: To evaluate in radioligand binding assays the activity of compounds of the invention, human recombinant histamine H1 receptor expressed in Chinese hamster ovary (CHO) cells (De Backer, M. D. et al., Biochem. Biophys. Res. Comm. 197(3):1601, 1993) in a modified Tris-HCl buffer (50 mM Tris-HCl, pH 7.4, 2 mM MgCl2, 100 mM NaCl, 250 mM Sucrose) was used. Compounds of the invention were incubated with 1.2 nM [^3H]Pyrilamine for 180 min at 25° C. Non-specific binding was estimated in the presence of 1 μM pyrilamine. Receptor proteins were filtered and washed, the filters were then counted to determine [^3H]Pyrilamine specifically bound. Compounds were screened at 1 μM or lower, using 1% DMSO as vehicle. Biochemical assay results are presented as the percent inhibition of specific binding in Table 2.

[5] = molecular target: T2, human recombinant adrenergic α2B receptor (Homo sapiens, UniProt P18089); experiment: Adrenergic α2B radioligand binding assay ([3H]Rauwolscine); conditions: 2.5 nM [3H]Rauwolscine, read-out: Percent Inhibition of ligand binding, Adrenergic (1 μM) α2B
T2 construct: expressed in transfected cells; host or cells: Chinese hamster ovary (CHO-K1) cells
T2 sequence (P18089 1-450): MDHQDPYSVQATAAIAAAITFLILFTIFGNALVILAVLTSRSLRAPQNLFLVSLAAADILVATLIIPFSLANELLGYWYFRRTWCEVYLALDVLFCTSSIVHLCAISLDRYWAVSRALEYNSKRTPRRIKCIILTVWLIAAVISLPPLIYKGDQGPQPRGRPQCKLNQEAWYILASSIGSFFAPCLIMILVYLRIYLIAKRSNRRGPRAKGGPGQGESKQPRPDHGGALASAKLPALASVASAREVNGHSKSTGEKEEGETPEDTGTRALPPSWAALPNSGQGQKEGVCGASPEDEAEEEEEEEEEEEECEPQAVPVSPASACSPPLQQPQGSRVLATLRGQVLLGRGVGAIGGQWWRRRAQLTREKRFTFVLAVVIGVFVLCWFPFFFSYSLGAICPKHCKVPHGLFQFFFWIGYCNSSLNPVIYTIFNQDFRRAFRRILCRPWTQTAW
Procedure: To evaluate in radioligand binding assays the activity of compounds of the invention, human recombinant adrenergic α2B receptor expressed in Chinese hamster ovary (CHO-K1) cells (Uhlen S et al. Eur. J. Pharmacol. 343(1):93, 1998) in a modified Tris-HCl buffer (50 mM Tris-HCl, pH 7.4, 12.5 mM MgCl2, 1 mM EDTA, 0.2% BSA) was used. Compounds of the invention were incubated with 2.5 nM [^3H]Rauwolscine for 60 min at 25° C. Non-specific binding was estimated in the presence of 10 μM Prozosin. Receptor proteins were filtered and washed, the filters were then counted to determine [^3H]Rauwolscine specifically bound. Compounds were screened at 1 μM or lower, using 1% DMSO as vehicle. Biochemical assay results are presented as the percent inhibition of specific binding in Table 3.

human recombinant dopamine D2L receptor, sequence (P14416 whole entry): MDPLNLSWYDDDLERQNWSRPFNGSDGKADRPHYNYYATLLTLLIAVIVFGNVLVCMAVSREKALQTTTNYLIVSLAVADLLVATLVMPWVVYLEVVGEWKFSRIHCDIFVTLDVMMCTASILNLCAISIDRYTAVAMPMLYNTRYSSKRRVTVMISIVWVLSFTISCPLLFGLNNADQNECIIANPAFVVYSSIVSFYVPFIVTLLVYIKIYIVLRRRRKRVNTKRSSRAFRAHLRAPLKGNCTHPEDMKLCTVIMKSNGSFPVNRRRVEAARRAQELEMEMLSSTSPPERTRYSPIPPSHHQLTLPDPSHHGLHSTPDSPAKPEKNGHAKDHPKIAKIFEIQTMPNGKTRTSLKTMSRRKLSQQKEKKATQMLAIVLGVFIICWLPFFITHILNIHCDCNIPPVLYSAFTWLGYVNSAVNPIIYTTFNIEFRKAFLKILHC
human recombinant histamine H1 receptor, sequence (P35367 whole entry): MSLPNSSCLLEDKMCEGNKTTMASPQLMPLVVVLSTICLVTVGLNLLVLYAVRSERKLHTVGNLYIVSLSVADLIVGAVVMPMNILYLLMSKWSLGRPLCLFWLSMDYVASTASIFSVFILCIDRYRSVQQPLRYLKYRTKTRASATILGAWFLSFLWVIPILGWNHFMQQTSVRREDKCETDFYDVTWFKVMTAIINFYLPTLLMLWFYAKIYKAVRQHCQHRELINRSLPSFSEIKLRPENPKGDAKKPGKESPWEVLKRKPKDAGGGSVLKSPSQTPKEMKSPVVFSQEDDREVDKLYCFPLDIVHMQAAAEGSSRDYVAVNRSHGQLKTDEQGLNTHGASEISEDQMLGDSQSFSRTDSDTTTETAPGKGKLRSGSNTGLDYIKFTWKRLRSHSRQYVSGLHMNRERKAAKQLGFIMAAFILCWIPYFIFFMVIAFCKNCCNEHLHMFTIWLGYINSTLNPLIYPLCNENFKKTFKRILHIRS
human recombinant serotonin (5-Hydroxytryptamine) 5-HT7 receptor, sequence (P34969 whole entry): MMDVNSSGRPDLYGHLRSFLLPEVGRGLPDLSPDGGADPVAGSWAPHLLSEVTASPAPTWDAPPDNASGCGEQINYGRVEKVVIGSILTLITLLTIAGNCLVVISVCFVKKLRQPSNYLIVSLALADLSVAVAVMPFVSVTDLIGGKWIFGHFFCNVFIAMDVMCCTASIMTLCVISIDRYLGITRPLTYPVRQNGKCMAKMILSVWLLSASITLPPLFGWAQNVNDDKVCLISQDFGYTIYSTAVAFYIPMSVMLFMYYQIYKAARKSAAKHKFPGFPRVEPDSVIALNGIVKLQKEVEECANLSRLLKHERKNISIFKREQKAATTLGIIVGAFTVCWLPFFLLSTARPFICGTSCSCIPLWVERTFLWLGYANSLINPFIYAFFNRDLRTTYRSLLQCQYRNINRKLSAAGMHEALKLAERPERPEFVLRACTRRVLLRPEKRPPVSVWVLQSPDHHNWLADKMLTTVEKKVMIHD

Structure (SMILES) | inhibition at 1 µM [1] [%] | inhibition at 1 µM [2] [%] | inhibition at 1 µM [3] [%] | Binding Data (% Inhibition) Histamine Binding H1 [4] [%] | inhibition at 1 µM [5] [%] | Percent Inhibition of ligand binding, Dopamine (1 μM) D2L [1] [%]
CN1CCc2c(c3cc(Cl)ccc3n2CC2(c3ccc(Cl)cc3)OCCO2)C1 [Compound 5, 8-chloro-5-((2-(4-chlorophenyl)-1,3-dioxolan-2-yl)methyl)-2-methyl-2,3,4,5-tetrahydro-1H-pyrido[4,3-b]indole] | 53 | 95 | 89 | 90 | 97 | 
CN1CCc2c(c3cc(Cl)ccc3n2CC2(c3ccc(F)cc3)OCCO2)C1 [Compound 4, 8-chloro-5-((2-(4-fluorophenyl)-1,3-dioxolan-2-yl)methyl)-2-methyl-2,3,4,5-tetrahydro-1H-pyrido[4,3-b]indole] | 58 | 95 | 93 | 87 | 103 | 
Cc1ccc2c(c1)c1c(n2CC2(c3ccccc3)OCCO2)CCN(C)C1 [Compound 2, 2,8-dimethyl-5-((2-phenyl-1,3-dioxolan-2-yl)methyl)-2,3,4,5-tetrahydro-1H-pyrido[4,3-b]indole] | 51 | 91 |  | 71 | 103 | 
CCOC(=O)CC(Cn1c2c(c3cc(C)ccc31)CN(C)CC2)c1ccc(F)cc1 (stereo not shown) [Compound 6, ethyl 4-(2,8-dimethyl-3,4-dihydro-1H-pyrido[4,3-b]indol-5(2H)-yl)-3-(4-fluorophenyl)butanoate] | 24 | 95 | 93 |  | 95 | 31
CNC(=O)CC(Cn1c2c(c3cc(C)ccc31)CN(C)CC2)c1ccc(F)cc1 (stereo not shown) [Compound 8, 4-(2,8-dimethyl-3,4-dihydro-1H-pyrido[4,3-b]indol-5(2H)-yl)-3-(4-fluorophenyl)-N-methylbutanamide] | 14 | 63 | 74 | 6 | 72 | 
Cc1ccc2c(c1)c1c(n2CC2(c3ccc(F)cc3)OCCO2)CCN(C)C1 [Compound 3, 5-((2-(4-fluorophenyl)-1,3-dioxolan-2-yl)methyl)-2,8-dimethyl-2,3,4,5-tetrahydro-1H-pyrido[4,3-b]indole] | 45 | 92 | 99 | 86 | 106 | 
Cc1ccc2c(c1)c1c(n2CC(CC(=O)O)c2ccc(F)cc2)CCN(C)C1 (stereo not shown) [Compound 7, 4-(2,8-dimethyl-3,4-dihydro-1H-pyrido[4,3-b]indol-5(2H)-yl)-3-(4-fluorophenyl)butanoic acid] | -10 | 9 | 5 | −1 | 12 | 
